The values below come from DBAASP.

By MIC is commonly meant the lowest concentration that inhibits growth of the organism.

Structures are written as SMILES. Converted amounts (≈) assume the structure as drawn.

Common to all, as to experiment: ≥ marks a high value that may be exact or a test limit, other limits are often not marked, values filed in µg/mL are converted to µM
Experiment [1] has as its system Staphylococcus aureus ATCC 25923.
The test system of experiment [2] is Salmonella enterica subsp. enterica serovar Typhimurium ATCC 14028.
The test system of experiment [3] is Enterococcus hirae ATCC 10541.
Experiment [4] deals with Candida albicans ATCC 90028.
Experiment [5] concerns Enterococcus faecium CCT 5079.
In experiment [6] the test system is Staphylococcus aureus CCT 2580.
The subject of experiment [7] is Escherichia coli CCT 1457.
The test system of experiment [8] is Staphylococcus epidermidis ATCC 12228.
Experiment [9] concerns Escherichia coli ATCC 25922.
Experiment [10] deals with Pseudomonas aeruginosa ATCC 13388.
The subject of experiment [11] is Streptococcus mutans AU159.
Experiment [12] has as its system Escherichia coli ATCC 11775.
The subject of experiment [13] is Micrococcus luteus ATCC 4698.
Experiment [14] deals with Bacillus cereus ATCC 11778.
Experiment [15] has as its system Salmonella enterica subsp. enterica serovar Choleraesuis ATCC 10708.
The test system of experiment [16] is Bacillus thuringiensis ATCC 10792.
Experiment [17] deals with Streptococcus pneumoniae ATCC 11733.
For experiment [18], the system named is Pseudomonas aeruginosa ATCC 15422.
Experiment [19] relates to Staphylococcus aureus CCT 6538.
Experiment [20] deals with Legionella pneumophila Lens.

As to `CC[C@H](C)[C@H](N)C(=O)N[C@@H](CC(N)=O)C(=O)N[C@@H](Cc1c[nH]c2ccccc12)C(=O)N[C@@H](CCCCN)C(=O)N[C@@H](CCCCN)C(=O)N[C@H](C(=O)N[C@@H](C)C(=O)N[C@@H](CCCCN)C(=O)N[C@@H](CCCCN)C(=O)N[C@H](C(=O)N[C@@H](C)C(=O)NCC(=O)N[C@@H](CCSC)C(=O)N[C@@H](CC(C)C)C(N)=O)C(C)C)[C@@H](C)CC` [INWKKIAKKVAGML], the MIC in experiment [1] was determined as 1.25 µM (≈ 2 µg/mL); in [2], 1.25 µM (≈ 2 µg/mL); in experiment [3], 5 µM (≈ 8 µg/mL); in experiment [4] it was 9.76 µM (≈ 15.6 µg/mL); in [5] it was 0.625 µM (≈ 0.999 µg/mL); in experiment [6] it was 1.25 µM (≈ 2 µg/mL). The MIC in [7] was determined as 0.625 µM (≈ 0.999 µg/mL); in experiment [8], 0.625 µM (≈ 0.999 µg/mL); in experiment [9] it was 2.5 µM (≈ 4 µg/mL); in [10], 10 µM (≈ 16 µg/mL); in [11] it was 1.25 µM (≈ 2 µg/mL); in experiment [12], 2.5 µM (≈ 4 µg/mL). Also, the MIC in experiment [13] is 0.625 µM (≈ 0.999 µg/mL); in experiment [14] it was 10 µM (≈ 16 µg/mL); in experiment [15], 5 µM (≈ 8 µg/mL); in experiment [16] it was 19.4 µM (≈ 31 µg/mL); in experiment [17] it was 0.625 µM (≈ 0.999 µg/mL); in [18], 5 µM (≈ 8 µg/mL). The same compound returned a minimal inhibitory concentration (MIC) in [19] of 0.625 µM (≈ 0.999 µg/mL).

`CC[C@H](C)[C@H](N)C(=O)N[C@@H](CC(N)=O)C(=O)N[C@@H](Cc1c[nH]c2ccccc12)C(=O)N[C@@H](CC(C)C)C(=O)N[C@@H](C)C(=O)N[C@H](C(=O)N[C@@H](C)C(=O)N[C@@H](C)C(=O)N[C@@H](C)C(=O)N[C@H](C(=O)N[C@@H](C)C(=O)NCC(=O)N[C@@H](CCSC)C(=O)N[C@@H](CC(C)C)C(N)=O)C(C)C)[C@@H](C)CC` [INWLAIAAAVAGML]: the MIC is greater than 354 µM in [1]; greater than 354 µM in experiment [2]; no less than 354 µM in [3]; no less than 354 µM in experiment [5]; no less than 354 µM in experiment [6]; no less than 354 µM in experiment [7]. The MIC in [8] was greater than 354 µM; in [9], greater than 354 µM; in experiment [10], no less than 354 µM; in [11], no less than 354 µM; in [12], no less than 354 µM; in experiment [13] it was no less than 354 µM. For the same compound, the MIC in [14], in experiment [15], in [16], in experiment [17], in [18] and in experiment [19] was no less than 354 µM each time.

In experiment [20], `CC[C@H](C)[C@H](NC(=O)[C@H](Cc1ccccc1)NC(=O)CNC(=O)[C@H](CC(N)=O)NC(=O)[C@@H](N)CCSC)C(=O)N[C@@H](CC(C)C)C(=O)NCC(=O)N[C@@H](CCCCN)C(=O)N[C@@H](Cc1ccccc1)C(=O)N[C@@H](Cc1ccccc1)C(=O)N[C@@H](CC(=O)O)C(=O)N[C@H](C(=O)N[C@@H](C)C(=O)N[C@@H](CCCCN)C(=O)N[C@@H](CCCCN)C(=O)N[C@H](C(=O)N[C@@H](CC(C)C)C(=O)N[C@@H](CC(=O)O)C(=O)N[C@H](C(=O)N[C@H](C(=O)N[C@@H](Cc1ccccc1)C(=O)N[C@@H](CCC(N)=O)C(=O)N[C@@H](CCCCN)C(=O)O)[C@@H](C)CC)[C@@H](C)O)[C@@H](C)CC)C(C)C` [MNGFILGKFFDVAKKILDTIFQK] gave an MIC of 1.22 µM (≈ 3.26 µg/mL).

On to `CC[C@H](C)[C@H](NC(=O)[C@H](CC(C)C)NC(=O)[C@H](CC(=O)O)NC(=O)[C@@H](NC(=O)[C@@H](NC(=O)[C@H](Cc1ccccc1)NC(=O)[C@H](CCC(N)=O)NC(=O)[C@@H](N)CCSC)[C@@H](C)CC)[C@@H](C)O)C(=O)N[C@@H](CCCCN)C(=O)N[C@@H](CCCCN)C(=O)N[C@@H](C)C(=O)N[C@H](C(=O)N[C@@H](CC(=O)O)C(=O)N[C@@H](Cc1ccccc1)C(=O)N[C@@H](Cc1ccccc1)C(=O)N[C@@H](CCCCN)C(=O)NCC(=O)N[C@@H](CC(C)C)C(=O)N[C@H](C(=O)NCC(=O)N[C@@H](CC(N)=O)C(=O)N[C@@H](CCCCN)C(=O)O)C(C)C)C(C)C` [MQFITDLIKKAVDFFKGLVGNK], for which the MIC in experiment [20] worked out at 2.08 µM (≈ 5.23 µg/mL).
